Measured values published in ChEMBL document CHEMBL1141736, “DNA polymerase and topoisomerase II inhibitors from Psoralea corylifolia” (J Nat Prod, 1998).
Calls of active or inactive are those of the source. The calls are words filed in the database; no cut-off is given here.

Tests used:
Type in all cases: cell-based
CV-1 [1] = experiment: Inhibition of replicative DNA polymerase gamma in SV40 virus infected african green monkey CV1 cells; details: Chlorocebus aethiops
CV-1 [2] = experiment: Inhibition of replicative DNA polymerase epsilon in SV40 virus infected african green monkey CV1 cells; details: Chlorocebus aethiops
CV-1 [3] = experiment: Inhibition of replicative DNA polymerase […] in SV40 virus infected african green monkey CV1 cells; details: Chlorocebus aethiops
[4] = target: DNA topoisomerase 2-alpha (Homo sapiens, UniProt P11388); experiment: Inhibition of DNA topoisomerase 2 in human HeLa cells by kinetoplast DNA decantation assay
Chain of DNA topoisomerase 2-alpha (P11388 whole entry): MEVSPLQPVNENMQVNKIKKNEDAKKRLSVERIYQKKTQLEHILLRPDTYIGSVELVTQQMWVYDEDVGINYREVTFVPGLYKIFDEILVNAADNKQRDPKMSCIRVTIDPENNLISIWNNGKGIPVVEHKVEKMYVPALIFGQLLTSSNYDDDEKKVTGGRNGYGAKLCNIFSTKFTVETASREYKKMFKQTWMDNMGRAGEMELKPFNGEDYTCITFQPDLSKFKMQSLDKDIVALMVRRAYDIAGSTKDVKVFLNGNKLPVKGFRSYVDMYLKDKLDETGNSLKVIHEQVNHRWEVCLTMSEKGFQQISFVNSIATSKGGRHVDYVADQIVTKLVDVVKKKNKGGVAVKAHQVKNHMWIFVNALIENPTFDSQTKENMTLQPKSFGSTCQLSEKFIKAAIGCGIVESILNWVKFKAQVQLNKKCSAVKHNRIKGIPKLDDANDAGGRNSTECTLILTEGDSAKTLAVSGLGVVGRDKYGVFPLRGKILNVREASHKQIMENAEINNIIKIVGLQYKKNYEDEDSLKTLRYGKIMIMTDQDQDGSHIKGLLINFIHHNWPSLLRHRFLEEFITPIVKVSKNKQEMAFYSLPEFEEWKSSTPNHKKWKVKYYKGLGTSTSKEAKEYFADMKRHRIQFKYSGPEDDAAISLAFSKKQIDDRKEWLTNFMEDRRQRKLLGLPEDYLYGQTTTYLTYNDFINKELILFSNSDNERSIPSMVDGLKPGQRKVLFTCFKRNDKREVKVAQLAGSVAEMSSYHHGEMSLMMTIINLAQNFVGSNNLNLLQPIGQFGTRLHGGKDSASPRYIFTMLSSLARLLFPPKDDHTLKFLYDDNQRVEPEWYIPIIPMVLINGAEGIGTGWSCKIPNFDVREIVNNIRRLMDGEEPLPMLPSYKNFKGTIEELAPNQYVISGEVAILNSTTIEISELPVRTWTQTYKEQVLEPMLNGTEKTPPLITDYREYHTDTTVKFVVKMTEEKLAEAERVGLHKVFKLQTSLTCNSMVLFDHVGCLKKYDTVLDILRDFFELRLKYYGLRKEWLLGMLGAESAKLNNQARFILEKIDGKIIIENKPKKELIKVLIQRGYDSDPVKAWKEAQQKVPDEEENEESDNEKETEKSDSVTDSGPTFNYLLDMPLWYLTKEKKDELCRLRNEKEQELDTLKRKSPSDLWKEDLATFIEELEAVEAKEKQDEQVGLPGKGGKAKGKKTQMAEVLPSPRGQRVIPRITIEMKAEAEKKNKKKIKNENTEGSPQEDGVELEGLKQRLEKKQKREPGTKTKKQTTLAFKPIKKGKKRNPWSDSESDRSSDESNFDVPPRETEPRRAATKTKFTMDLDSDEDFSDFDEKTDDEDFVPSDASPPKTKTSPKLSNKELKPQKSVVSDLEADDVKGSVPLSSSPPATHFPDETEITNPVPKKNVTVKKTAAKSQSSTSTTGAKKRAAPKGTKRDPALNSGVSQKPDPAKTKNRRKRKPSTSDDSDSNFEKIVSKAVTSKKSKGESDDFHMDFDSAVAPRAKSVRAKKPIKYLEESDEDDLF

C=C[C@@](C)(/C=C/c1ccc(O)cc1)CCC=C(C)C
Activity (CV-1 [1]): inactive
Activity (CV-1 [2]): Active
Activity (CV-1 [3]): inactive

O=c1ccc2cc3ccoc3cc2o1
Activity [4]: inactive

O=c1ccc2c(ccc3ccoc32)o1 [BAKUCHICIN]
IC50 [4]: 404 µM

CC(C)=CCc1cc(-c2coc3cc(O)ccc3c2=O)ccc1O
Activity [4]: inactive
